In US9422267B2, “Fused pyrimidine compounds and use thereof” (Medivation Technologies, Inc., priority 2012, dated 2016):
Where two headings read alike, the source gives them in different places.

Columns and labels:
[1] = biological target: T1, IR (Homo sapiens, UniProt P06213); test: In vitro IR enzymatic assay (ADP-Glo kinase assay); type: biochemical; details: activated IR; for IC50: read-out: IC50; for inhibition at 0.03 µM: 30 nM
T1 construct: purchased Millipore 14-803
Protocol: (§1) IC50 values of the compounds of the invention against IGF-1R and IR were measured in vitro using an ADP-Glo kinase assay Kit (Promega). […] Kinase reactions in both assays were conducted at 30° C. for 20 min with increasing concentrations of compounds of the invention.

[2] = tested on: Akt phosphorylation induced by IGF-1R in HT-29 cells; test: Western blot analysis of Akt phosphorylation induced by IGF-1R; type: cell-based, Human; details: then IGF-1 10 ng/mL 10 min, HT-29
Protocol: Inhibition of Akt phosphorylation induced by IGF-1R was studied by western blot analysis. Human colon carcinoma HT-29 cells were seeded at a density of 8×10^4 cells/well in a 24-well plate and grown in DME/F12 media containing 10% FBS for 24 h. The cells were then depleted of serum by incubation in DME/F12 media lacking FBS for 24 h. […] […] Lysed cells were centrifuged at 13,000 rpm for 15 min and the protein concentration soluble fraction (supernatant) of each sample was determined using a BCA protein assay (Pierce).

[3] = biological target: IGF1R (Homo sapiens, UniProt P08069); test: In vitro IGF-1R enzymatic assay (ADP-Glo kinase assay); type: biochemical; design: purchased Millipore 14-802; details: activated IGF-1R; for IC50: read-out: IC50; for inhibition at 0.03 µM: 30 nM
Protocol: as §1

[4] = average, read-out: % Inh @ 30 nM Avg
[5] = replicate N1, read-out: % Inh @ 30 nM (N1)
[6] = replicate N2, read-out: % Inh @ 30 nM (N2)

T1 sequence (P06213 28-1382): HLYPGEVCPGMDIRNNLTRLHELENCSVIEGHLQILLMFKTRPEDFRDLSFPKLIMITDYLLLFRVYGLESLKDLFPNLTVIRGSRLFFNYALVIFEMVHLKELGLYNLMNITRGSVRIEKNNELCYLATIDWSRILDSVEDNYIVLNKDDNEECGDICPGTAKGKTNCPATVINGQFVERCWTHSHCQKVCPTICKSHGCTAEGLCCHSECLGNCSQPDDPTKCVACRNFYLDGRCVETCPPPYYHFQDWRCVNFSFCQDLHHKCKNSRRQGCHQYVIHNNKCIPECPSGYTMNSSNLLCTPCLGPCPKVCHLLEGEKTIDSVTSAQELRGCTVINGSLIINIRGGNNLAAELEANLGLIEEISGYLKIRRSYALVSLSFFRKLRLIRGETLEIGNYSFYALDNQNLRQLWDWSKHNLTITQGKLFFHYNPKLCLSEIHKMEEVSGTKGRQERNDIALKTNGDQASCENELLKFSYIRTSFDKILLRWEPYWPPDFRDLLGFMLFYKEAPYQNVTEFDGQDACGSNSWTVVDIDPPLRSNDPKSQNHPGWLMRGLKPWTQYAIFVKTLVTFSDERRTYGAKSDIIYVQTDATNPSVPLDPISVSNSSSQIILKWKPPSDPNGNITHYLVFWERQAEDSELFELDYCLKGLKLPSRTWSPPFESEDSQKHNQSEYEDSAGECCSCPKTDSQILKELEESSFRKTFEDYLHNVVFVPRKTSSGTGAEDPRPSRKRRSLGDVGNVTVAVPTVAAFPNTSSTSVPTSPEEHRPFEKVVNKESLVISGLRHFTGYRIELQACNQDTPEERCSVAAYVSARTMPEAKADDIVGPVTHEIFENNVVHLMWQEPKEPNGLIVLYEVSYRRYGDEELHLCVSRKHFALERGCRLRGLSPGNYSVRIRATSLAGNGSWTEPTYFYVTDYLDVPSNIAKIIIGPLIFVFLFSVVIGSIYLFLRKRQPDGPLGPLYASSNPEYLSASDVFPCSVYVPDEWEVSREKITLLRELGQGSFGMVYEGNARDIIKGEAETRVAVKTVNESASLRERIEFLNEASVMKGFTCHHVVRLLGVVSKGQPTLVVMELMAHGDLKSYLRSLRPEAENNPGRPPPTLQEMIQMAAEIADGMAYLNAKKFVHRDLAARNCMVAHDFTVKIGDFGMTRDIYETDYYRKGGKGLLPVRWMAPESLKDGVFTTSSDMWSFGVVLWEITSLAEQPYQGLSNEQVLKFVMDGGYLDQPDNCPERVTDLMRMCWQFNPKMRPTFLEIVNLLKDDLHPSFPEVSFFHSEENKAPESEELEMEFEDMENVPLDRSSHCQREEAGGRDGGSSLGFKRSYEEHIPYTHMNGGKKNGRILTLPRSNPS
Sequence of IGF1R (P08069 31-1367): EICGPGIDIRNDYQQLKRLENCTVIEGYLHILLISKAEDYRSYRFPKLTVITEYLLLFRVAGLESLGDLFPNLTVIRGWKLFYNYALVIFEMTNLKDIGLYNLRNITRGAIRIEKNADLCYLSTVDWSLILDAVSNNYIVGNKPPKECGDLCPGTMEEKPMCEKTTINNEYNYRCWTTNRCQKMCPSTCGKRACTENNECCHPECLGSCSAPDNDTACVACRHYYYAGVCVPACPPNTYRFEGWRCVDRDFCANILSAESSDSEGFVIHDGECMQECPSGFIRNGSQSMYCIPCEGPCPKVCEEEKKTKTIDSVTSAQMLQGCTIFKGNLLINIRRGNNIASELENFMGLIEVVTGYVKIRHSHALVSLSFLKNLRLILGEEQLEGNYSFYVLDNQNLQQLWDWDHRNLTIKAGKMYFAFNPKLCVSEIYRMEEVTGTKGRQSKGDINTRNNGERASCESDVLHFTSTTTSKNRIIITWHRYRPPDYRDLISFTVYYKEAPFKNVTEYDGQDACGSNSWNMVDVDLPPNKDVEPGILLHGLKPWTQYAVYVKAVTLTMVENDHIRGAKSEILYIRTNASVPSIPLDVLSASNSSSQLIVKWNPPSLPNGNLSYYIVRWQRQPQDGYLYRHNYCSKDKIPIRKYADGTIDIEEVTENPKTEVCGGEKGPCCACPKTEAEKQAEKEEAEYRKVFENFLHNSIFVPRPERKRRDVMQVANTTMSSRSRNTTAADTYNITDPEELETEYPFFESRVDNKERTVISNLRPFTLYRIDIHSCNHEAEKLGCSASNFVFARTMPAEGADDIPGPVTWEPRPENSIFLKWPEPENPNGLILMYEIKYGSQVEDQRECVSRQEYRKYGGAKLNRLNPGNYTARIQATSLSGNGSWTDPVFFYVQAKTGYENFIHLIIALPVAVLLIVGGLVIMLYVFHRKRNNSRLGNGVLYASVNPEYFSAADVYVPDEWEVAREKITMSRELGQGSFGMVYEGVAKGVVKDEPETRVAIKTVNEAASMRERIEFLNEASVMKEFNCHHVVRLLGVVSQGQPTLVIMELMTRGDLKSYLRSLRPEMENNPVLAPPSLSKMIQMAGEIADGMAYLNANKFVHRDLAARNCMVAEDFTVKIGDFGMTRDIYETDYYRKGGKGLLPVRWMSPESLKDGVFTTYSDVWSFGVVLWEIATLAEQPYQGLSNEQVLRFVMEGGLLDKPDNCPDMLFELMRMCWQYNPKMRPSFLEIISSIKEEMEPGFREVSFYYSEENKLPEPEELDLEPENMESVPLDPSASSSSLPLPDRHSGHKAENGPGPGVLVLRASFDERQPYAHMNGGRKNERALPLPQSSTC

| IC50 [1] | inhibition at 0.03 µM [3, 4] | inhibition at 0.03 µM [3, 5] | inhibition at 0.03 µM [3, 6] | Structure (SMILES) | phosphorylated AKT levels normalized to actin levels (pAKT/actin) ([2]; 0.1 nM compound 2 h) | phosphorylated AKT levels normalized to actin levels (pAKT/actin) ([2]; 1 nM compound 2 h) | phosphorylated AKT levels normalized to actin levels (pAKT/actin) ([2]; 10 nM compound 2 h) | phosphorylated AKT levels normalized to actin levels (pAKT/actin) ([2]; 100 nM compound 2 h) | also measured |
| --- | --- | --- | --- | --- | --- | --- | --- | --- | --- |
| 32 nM |  |  |  | CC(C)c1cc(Nc2nc(N3CCCC3C(=O)Nc3ccncn3)nc3c2CCC3)n[nH]1 (racemic) [Compound 69, 1-(4-(5-isopropyl-1H-pyrazol-3-ylamino)-6,7-dihydro-5H-cyclopenta[d]pyrimidin-2-yl)-N-(pyrimidin-4-yl)pyrrolidine-2-carboxamide] |  |  |  |  |  |
| 13 nM |  |  |  | CC(C)c1cc(Nc2nc(N3CCCC3C(=O)Nc3ccc(F)nc3)nc3c2CCCC3)n[nH]1 (single isomer, unassigned) [Compound 13b, N-(6-fluoropyridin-3-yl)-1-(4-(5-isopropyl-1H-pyrazol-3-ylamino)-5,6,7,8-tetrahydroquinazolin-2-yl)pyrrolidine-2-carboxamide] | 0.22 | 0.09 | 0.00 | 0.00 | IC50 [3]: 17 nM |
| 120 nM |  |  |  | COC1CC(C(=O)Nc2ccc(F)nc2)N(c2nc3c(c(Nc4cc(C5CC5)[nH]n4)n2)CCC3)C1 (single isomer, unassigned) [Compound 21b] |  |  |  |  | inhibition at 0.03 µM [1, 4]: 30% |
| 16 nM | 77% | 77% | 76% | O=C(Nc1ccc(F)nc1)C1CCCN1c1nc2c(c(Nc3cc(C4CC4)[nH]n3)n1)CCCC2 (single isomer, unassigned) [Compound 14b, 1-(4-(5-cyclopropyl-1H-pyrazol-3-ylamino)-5,6,7,8-tetrahydroquinazolin-2-yl)-N-(6-fluoropyridin-3-yl)pyrrolidine-2-carboxamide] | 0.51 | 0.49 | 0.02 | 0.00 | IC50 [3]: 22 nM; inhibition at 0.03 µM [1, 4]: 81%; inhibition at 0.03 µM [1, 5]: 82%; inhibition at 0.03 µM [1, 6]: 81% |
|  | 16% | 14% | 17% | O=C(Nc1ccc(F)nc1)C1CCCCN1c1nc2c(c(Nc3cc(C4CC4)[nH]n3)n1)CCC2 (single isomer, unassigned) [Compound 9b, 1-(4-(5-cyclopropyl-1H-pyrazol-3-ylamino)-6,7-dihydro-5H-cyclopenta[d]pyrimidin-2-yl)-N-(6-fluoropyridin-3-yl)piperidine-2-carboxamide] |  |  |  | 0.78 | inhibition at 0.03 µM [1, 4]: 6%; inhibition at 0.03 µM [1, 5]: 3%; inhibition at 0.03 µM [1, 6]: 9% |
|  | 13% | 17% | 10% | O=C(Nc1ccc(F)nc1)C1C(O)CCN1c1nc2c(c(Nc3cc(C4CC4)[nH]n3)n1)CCC2 (single isomer, unassigned) [Compound 11a] |  |  |  |  |  |
|  | 11% |  |  | CC(C)c1cc(Nc2nc(N3CCCC3C(=O)N(C)C)nc3c2CCC3)n[nH]1 (single isomer, unassigned) [Compound 20a, 1-(4-(5-isopropyl-1H-pyrazol-3-ylamino)-6,7-dihydro-5H-cyclopenta[d]pyrimidin-2-yl)-N,N-dimethylpyrrolidine-2-carboxamide] |  |  |  |  |  |
| 11 nM |  |  |  | CC(C)c1cc(Nc2nc(N3CCCC3C(=O)Nc3nccs3)nc3c2CCC3)n[nH]1 (racemic) [Compound 68, 1-(4-(5-isopropyl-1H-pyrazol-3-ylamino)-6,7-dihydro-5H-cyclopenta[d]pyrimidin-2-yl)-N-(thiazol-2-yl)pyrrolidine-2-carboxamide] |  |  |  |  |  |
|  | 20% | 19% | 20% | CC(C)c1cc(Nc2nc(N3CCCC3C(=O)Nc3ccc(F)nc3)nc3c2CCC3)on1 (single isomer, unassigned) [Compound 12a, N-(6-fluoropyridin-3-yl)-1-(4-(3-isopropylisoxazol-5-ylamino)-6,7-dihydro-5H-cyclopenta[d]pyrimidin-2-yl)pyrrolidine-2-carboxamide] |  |  |  |  |  |
|  | 19% | 17% | 20% | O=C(Nc1ccc(F)nc1)C1CCCN1c1nc2c(c(Nc3cc(C4CCCC4)[nH]n3)n1)CCCC2 (single isomer, unassigned) [Compound 15a, 1-(4-(5-cyclopentyl-1H-pyrazol-3-ylamino)-5,6,7,8-tetrahydroquinazolin-2-yl)-N-(6-fluoropyridin-3-yl)pyrrolidine-2-carboxamide] | 0.70 | 0.89 | 0.92 | 0.59 |  |
| 16 nM |  |  |  | CC(C)c1cc(Nc2nc(N3CCCC3C(=O)Nc3ccc(N)nc3)nc3c2CCC3)n[nH]1 (racemic) [Compound 72, N-(6-aminopyridin-3-yl)-1-(4-(5-isopropyl-1H-pyrazol-3-ylamino)-6,7-dihydro-5H-cyclopenta[d]pyrimidin-2-yl)pyrrolidine-2-carboxamide] |  |  |  |  |  |
| 36 nM | 35% |  |  | CC(C)c1cc(Nc2nc(N3CCCC3C(=O)Nc3ccc(F)nc3)nc3c2CC(C)(C)C3)n[nH]1 (racemic) [Compound 50, N-(6-fluoropyridin-3-yl)-1-(4-((5-isopropyl-1H-pyrazol-3-yl)amino)-6,6-dimethyl-6,7-dihydro-5H-cyclopenta[d]pyrimidin-2-yl)pyrrolidine-2-carboxamide] |  |  |  |  | inhibition at 0.03 µM [1, 4]: 51% |
|  | 21% | 27% |  | CC(C)c1cc(Nc2nc(N3CCCCC3C(=O)Nc3ccc(F)nc3)nc3c2CCC3)n[nH]1 (single isomer, unassigned) [Compound 16a, N-(6-fluoropyridin-3-yl)-1-(4-(5-isopropyl-1H-pyrazol-3-ylamino)-6,7-dihydro-5H-cyclopenta[d]pyrimidin-2-yl)piperidine-2-carboxamide] | 0.82 | 0.62 | 0.61 | 0.30 |  |
| 44 nM |  |  |  | CC(C)c1cc(Nc2nc(N3CC(O)CC3C(=O)Nc3nccs3)nc3c2CCC3)n[nH]1 (racemic) [Compound 71, 4-hydroxy-1-(4-(5-isopropyl-1H-pyrazol-3-ylamino)-6,7-dihydro-5H-cyclopenta[d]pyrimidin-2-yl)-N-(thiazol-2-yl)pyrrolidine-2-carboxamide] |  |  |  |  |  |
| 22 nM |  |  |  | CC(C)c1cc(Nc2nc(N3CC(O)CC3C(=O)Nc3ccc(F)nc3)nc3c2CCC3)n[nH]1 (racemic) [Compound 70, N-(6-fluoropyridin-3-yl)-4-hydroxy-1-(4-(5-isopropyl-1H-pyrazol-3-ylamino)-6,7-dihydro-5H-cyclopenta[d]pyrimidin-2-yl)pyrrolidine-2-carboxamide] |  |  |  |  |  |
|  |  |  |  | O=C(Nc1ccc(F)nc1)C1CCCN1c1nc2c(c(Nc3cc(C4CCCC4)[nH]n3)n1)CCCC2 (single isomer, unassigned) [Compound 15b, 1-(4-(5-cyclopentyl-1H-pyrazol-3-ylamino)-5,6,7,8-tetrahydroquinazolin-2-yl)-N-(6-fluoropyridin-3-yl)pyrrolidine-2-carboxamide] | 0.52 | 0.58 | 0.43 | 0.13 |  |
